The results in this text go back to paper PMC11411213 (Journal of Molecular Cell Biology, 2024).

One series can be described thus: in vitro. Conditions: human.
Series [1] has as its system intracellular ROS levels in Calu-3 cells. It counts as cell-based, human.
The test system of series [2] is pseudotyped vesicular stomatitis virus (VSV) that contains SARS-CoV-2 Spike protein. It counts as cell-based.
The test system of the next series is SARS-CoV-2 Delta strain. The conditions noted are these: mouse, in vivo.

For `O=C(O)c1cc(/N=N/c2ccc(S(=O)(=O)Nc3ccccn3)cc2)ccc1O` [Sulfasalazine], the “cytotoxic activity (in words)” value in the series with Calu-3 cells was “no cytotoxicity at any of the tested concentrations”. In the series “in vitro”, this molecule displayed a CC50 greater than 500 µM.

As for imidazole ketone erastin [IKE], in series [1], the “intracellular ROS levels after 24 h treatment” value is given as “reduced the basal ROS level”; the “intracellular ROS levels after SARS-CoV-2 infection with 24 h pretreatment” value is recorded as “prevented virus-induced ROS bursts”; the “intracellular ROS levels over time after administration” value is reported as “biphasic trend, with an initial increase at early time points (0–6 h) followed by a substantial decrease at a later time point (24 h)”. In the series with Calu-3 cells, this molecule had a CC50 of 9.29 ± 0.324 µM.

In the case of `COc1cc2c(Nc3ccc(Br)cc3F)ncnc2cc1OCC1CCN(C)CC1` [Vandetanib], the “cytotoxic activity (in words)” value in the series on Calu-3 cells is “cytotoxic in the micromolar range”. Also, the CC50 in “in vitro” is 3.76 ± 0.132 µM.

With `COc1cc(Nc2ncc(F)c(Nc3ccc4c(n3)NC(=O)C(C)(C)O4)n2)cc(OC)c1OC` [Tamatinib], the “cytotoxic activity (in words)” value in the series with Calu-3 cells is “cytotoxic in the micromolar range”. The molecule also gave a CC50 in “in vitro” of 5.74 ± 0.354 µM.

As for N-acetyl cysteine [NAC], the “intracellular ROS levels after 24 h treatment” value in series [1] is listed as “reduced ROS levels”. The “effect on SARS-CoV-2 entry (Spike pseudovirus luciferase)” value in series [2] was “did not observe any effect”. In the series with SARS-CoV-2 Delta strain, the “IHC analysis of the N protein in the lungs” value was “confirmed by immunohistochemistry”; the “levels of viral transcripts N and RdRp in lungs (qPCR)” value is reported as “significantly lower levels of viral transcripts than untreated mice”. In the series with Calu-3 cells, this molecule returned a CC50 greater than 5000 µM.

Consider MKI-1, for which, in the series with Calu-3 cells, the CC50 turned out to be 0.892 ± 0.001 µM and the “cytotoxic activity (in words)” value is recorded as “cytotoxic in the high nanomolar range”.

As to `N[C@@H](CCC(=O)N[C@@H](CS)C(=O)NCC(=O)O)C(=O)O` [GSH, glutathione], the “intracellular ROS levels after 24 h treatment” value in series [1] was “reduced ROS levels”.
